Test results taken from US20150079000A1, “Labelled Quinoxaline Derivatives as Multimodal Radiopharmaceuticals and Their Precursors” (INSTITUT NATIONAL DE LA SANTET DE LA RECHERCHE MEDICALE, priority 2012, published 2015).

Tested on: melanoma B16F0 tumours
Assay: In vivo scintigraphic imaging of [125I]-labelled compounds
Set-up: species or system C57BL/6J mice
Details: planar scintigraphy
Source text: C57BL/6J male mice (6-8 weeks old) were obtained from Charles River (l'Arbresle, France) and the B 16F0 syngenic melanoma from ATCC (no. CRL-6322). Primary melanoma model was induced by subcutaneous injection of B 16F0 murine melanoma cells in C57BL/6J mice. B 16F0 melanoma cell cultures were maintained as monolayers in Dulbecco's Modified Eagle's Medium (DMEM)/Glutamax (Invitrogen, Cergy Pontoise, France) supplemented with 10% fetal calf serum (Sigma, Saint Quentin Fallavier, France), 1% vitamins (Invitrogen, Cergy-Pontoise, France), 1 mM sodium pyruvate (Invitrogen), 1% non essential amino acids (Invitrogen), and 4 μg/mL of gentamycin base (Invitrogen). Cells were grown at 37° C. in a humidified incubator containing 5% CO2. For transplantation, cells in exponential growth phase were trypsinized, washed with phosphate buffer saline (PBS), and resuspended in PBS. C57BL/6J mice anesthetized by isoflurane (2%) inhalation were inoculated with 3×10^5 melanoma B16F0 cells in 0.1 mL of PBS by subcutaneous injection on the right flank.
In vivo scintigraphic imaging protocol was submitted and approved by the french regional ethical animal use committee (CEMEA, Auvergne, authorization no. CE18-09, 2010). Scintigraphic imaging of radioiodinated compounds in mice was performed using a gamma camera dedicated to small animal imaging (γIMAGER, Biospace Mesures, Paris, France). This camera consists of a R 3292 Hamamatsu position-sensitive photomultiplier having a continuous 4 mm thick×120 mm diameter CsI (Na) crystal leading to a 10 cm field of view. For ^125I imaging, the camera was equipped with parallel-hole collimator 1.8/0.2/20 (hole diameter/septum thickness/height in mm). All the acquisitions were performed with a 15% window centered on the 35 keV peak of ^125I.
On day 14 after tumour implantation, each [^125I]-labelled compound was administered intravenously via the tail vein with 3.7 MBq/mouse (range 3-8 animals/compounds). The injected activity to each mouse was also determined from scintigraphic imaging of the syringe before and after the injection of the radiotracer. At different times after administration (1 h, 3 h, 6 h, 24 h, 72 h, 5 d, 7 d, 10 d and 14 d), mice were anaesthetized by i.p. administration (200 μL/mouse) of a ketamine-xylazine mixture in saline: ketamine (100 mg/kg, Imalgene, Rhône Merieux, Lyon, France) and xylazine (10 mg/kg, Rompun, Bayer, France). A 10 min duration image was acquired on anesthetized mice placed in prone position over the collimator of the camera. Reproducibility in animal positioning for the serial images was achieved using a graduated reference grid.
Quantitative analysis of scintigraphic scans was performed using the GAMMAVISION+ software (Biospace Mesures, Paris, France). Regions of interest (ROIs) were manually drawn around the tumour, the whole body area, the bladder, the eyes, the submaxillary and thyroid glands and the controlateral muscle which was chosen as background. For each ROI, total activity, min and max pixel values, ROI size (in mm^2), average activity per mm^2 and standard deviation were obtained. These values were normalized to the injected activity. For the tumour, the activity was also normalized to the tumour weight as previously described (Miot-Noirault, Cancer biotherapy & radiopharmaceuticals, 24 (2009) 629-636) and expressed as percentage of injected dose per gram of tumour (% ID/g).

Row | SMILES | % ID/g (tumour) (1 h after i.v. injection) [% ID/g] | % ID/g (tumour) (3 h after i.v. injection) [% ID/g] | % ID/g (tumour) (6 h after i.v. injection) [% ID/g] | % ID/g (tumour) (24 h after i.v. injection) [% ID/g] | % ID/g (tumour) (72 h after i.v. injection) [% ID/g] | % ID/g (tumour) (5 d after i.v. injection) [% ID/g] | % ID/g (tumour) (7 d after i.v. injection) [% ID/g] | % ID/g (tumour) (10 d after i.v. injection) [% ID/g] | % ID/g (tumour) (14 d after i.v. injection) [% ID/g]
1 | CCN(CCNC(=O)c1cnc2cc([125I])ccc2n1)CCOCCOCCOCCF.Cl.Cl [[^125I]3] | 11.7 ± 2.2 | 12.1 ± 1.7 | 12.1 ± 1.9 | 12.4 ± 2.3 | 8.6 ± 3.6 | 5.8 ± 2.4 | 2.7 ± 0.8 | 1.3 ± 0.4 | 0.6 ± 0.3
2 | CCN(CCNC(=O)c1cnc2cc([125I])ccc2n1)CCOCCOCCOCCOCCOCCOCCOCCF [[^125I]5] | 6.8 ± 1.8 | 7.8 ± 1.5 | 7.2 ± 1.1 | 6.8 ± 1.7 | 3.8 ± 0.7 | 2.7 ± 0.3 | 1.5 ± 0.2 | 0.8 ± 0.3 | 0.3 ± 0.01
3 | CCN(CCNC(=O)c1cnc2cc([125I])ccc2n1)Cc1cn(CCF)nn1 [[^125I]7] | 13.0 ± 1.5 | 14.5 ± 0.1 | 15.9 ± 1.7 | 15.6 ± 3.4 | 11.0 ± 0.7 | 8.6 ± 0.4 | 5.3 ± 0.8 | 3.7 ± 0.3 | 1.8 ± 0.4
